Values after ≈ are worked out from the molar mass of the structure shown.
Columns and labels:
Experiment in all cases: ≥ marks a high value that may be exact or a test limit, other limits are often not marked, values filed in µg/mL are converted to µM
Escherichia coli K88 = system: Escherichia coli K88
[1] = system: Salmonella enterica subsp. enterica serovar Typhimurium C77-31
[2] = system: Pseudomonas aeruginosa PAO1
Escherichia coli UB1005 = system: Escherichia coli UB1005
Klebsiella pneumoniae = system: Klebsiella pneumoniae
[3] = system: Pseudomonas aeruginosa CICC 21625
Escherichia coli = system: Escherichia coli
[4] = system: Salmonella enterica subsp. enterica serovar Typhimurium ATCC 14028
Acinetobacter baumannii = system: Acinetobacter baumannii
[5] = system: Pseudomonas aeruginosa CICC 21630
[6] = system: Escherichia coli ATCC 25922
[7] = system: Pseudomonas aeruginosa ATCC 27853
[8] = system: Salmonella enterica subsp. enterica serovar Pullorum C79-13
Pseudomonas aeruginosa = system: Pseudomonas aeruginosa
Escherichia coli K99 = system: Escherichia coli K99
[9] = system: Pseudomonas syringae EPS 94
[10] = system: Xanthomonas vesicatoria 2133-2
[11] = system: Erwinia amylovora PMV 6076
[12] = system: Rhizopus stolonifer CECT 2344
[13] = system: Penicillium expansum EPS 26
[14] = system: Aspergillus niger CECT 2694
[15] = system: Fusarium oxysporum f. sp. lycopersici ATCC 201829
[16] = system: Escherichia coli CVCC 1515
[17] = system: Staphylococcus epidermidis ATCC 12228
[18] = system: Staphylococcus aureus ATCC 29213
[19] = system: Staphylococcus aureus CMCC 26003
[20] = system: Listeria monocytogenes ATCC 19115
[21] = system: Bacillus subtilis CMCC 63501
[22] = system: Candida albicans ATCC 90028
[23] = system: Pectobacterium carotovorum
[24] = system: Bacillus subtilis ATCC 23857
[25] = system: Cryptococcus neoformans ATCC 28957
[26] = system: Fusarium oxysporum f.sp. vasinfectum
Ramulariopsis gossypii = system: Ramulariopsis gossypii
Trichoderma asperellum = system: Trichoderma asperellum
Fusarium solani = system: Fusarium solani
[27] = system: Staphylococcus aureus ATCC 25923
[28] = system: Pseudomonas syringae pv. tabaci
Fusarium oxysporum = system: Fusarium oxysporum

CC(C)C[C@H](NC(=O)[C@@H]1CCCN1C(=O)[C@H](CCCN=C(N)N)NC(=O)[C@H](CC(C)C)NC(=O)[C@H](CC(C)C)NC(=O)[C@@H]1CCCN1C(=O)[C@H](CCCN=C(N)N)NC(=O)[C@H](CC(C)C)NC(=O)[C@H](CC(C)C)NC(=O)[C@@H]1CCCN1C(=O)[C@H](CCCN=C(N)N)NC(=O)[C@H](CC(C)C)NC(=O)[C@H](CC(C)C)NC(=O)[C@@H]1CCCN1C(=O)[C@H](CCCN=C(N)N)NC(=O)[C@H](CC(C)C)NC(=O)[C@H](CC(C)C)NC(=O)[C@@H]1CCCN1C(=O)[C@H](CCCN=C(N)N)NC(=O)[C@@H](N)CC(C)C)C(N)=O [LRPLLRPLLRPLLRPLLRPL]
MIC (Escherichia coli K88): 2 µM (≈ 4.83 µg/mL)
MIC [1]: 4 µM (≈ 9.66 µg/mL)
MIC [2]: 32 µM (≈ 77.3 µg/mL)
MIC (Escherichia coli UB1005): 4 µM (≈ 9.66 µg/mL)
MIC (Klebsiella pneumoniae): 8 µM (≈ 19.3 µg/mL)
MIC [3]: ≥ 32 µM
MIC (Escherichia coli): 4 µM (≈ 9.66 µg/mL)
MIC [4]: 4 µM (≈ 9.66 µg/mL)
MIC (Acinetobacter baumannii): 2 µM (≈ 4.83 µg/mL)
MIC [5]: 16 µM (≈ 38.6 µg/mL)
MIC [6]: 4 µM (≈ 9.66 µg/mL)
MIC [7]: 32 µM (≈ 77.3 µg/mL)
MIC [8]: 2 µM (≈ 4.83 µg/mL)
MIC (Pseudomonas aeruginosa): 32 µM (≈ 77.3 µg/mL)
MIC (Escherichia coli K99): 4 µM (≈ 9.66 µg/mL)

CC[C@H](C)[C@H](NC(=O)[C@H](CCCCN)NC(=O)[C@H](CCCCN)NC(=O)[C@H](Cc1ccccc1)NC(=O)[C@H](CC(C)C)NC(=O)[C@H](CCCCN)NC(=O)[C@@H](N)Cc1c[nH]c2ccccc12)C(=O)N[C@@H](CC(C)C)C(=O)N[C@@H](CCCCN)C(=O)N[C@@H](Cc1ccccc1)C(=O)N[C@@H](CC(C)C)C(N)=O [WKLFKKILKFL]
MIC [9]: 5.92 µM (≈ 8.65 µg/mL)
MIC [10]: 2 µM (≈ 2.93 µg/mL)
MIC [11]: 5.92 µM (≈ 8.65 µg/mL)
MIC [12]: ≥ 35.4 µM
MIC [13]: 22.4 µM (≈ 32.7 µg/mL)
MIC [14]: 22.4 µM (≈ 32.7 µg/mL)
MIC [15]: 1.73 µM (≈ 2.53 µg/mL)

CC(C)C[C@H](NC(=O)[C@H](Cc1c[nH]c2ccccc12)NC(=O)[C@H](C)NC(=O)[C@H](CCCCN)NC(=O)[C@H](C)NC(=O)[C@H](C)N)C(=O)N[C@@H](CCCCN)C(=O)N[C@@H](CC(C)C)C(=O)N[C@@H](Cc1c[nH]c2ccccc12)C(=O)N[C@@H](C)C(=O)N[C@@H](CCCCN)C(=O)N[C@@H](C)C(=O)N[C@@H](C)C(N)=O [AAKAWLKLWAKAA]
MIC (Escherichia coli K88): 8 µM (≈ 11.4 µg/mL)
MIC (Escherichia coli UB1005): 16 µM (≈ 22.8 µg/mL)
MIC [16]: 16 µM (≈ 22.8 µg/mL)
MIC [17]: 64 µM (≈ 91.3 µg/mL)
MIC [4]: 32 µM (≈ 45.7 µg/mL)
MIC [6]: 2 µM (≈ 2.85 µg/mL)
MIC [7]: 64 µM (≈ 91.3 µg/mL)
MIC [18]: 64 µM (≈ 91.3 µg/mL)

CC[C@H](C)[C@H](NC(=O)[C@H](CCCN=C(N)N)NC(=O)[C@H](CCCN=C(N)N)NC(=O)[C@H](CC(C)C)NC(=O)[C@@H](N)Cc1ccccc1)C(=O)N[C@@H](CCCN=C(N)N)C(=O)N[C@H](C(=O)N[C@H](C(=O)N1CCC[C@H]1C(=O)N[C@@H](Cc1c[nH]c2ccccc12)C(=O)N[C@H](C(=O)N[C@@H](CC(N)=O)C(=O)N1CCC[C@H]1C(=O)N1CCC[C@H]1C(=O)N[C@@H](Cc1ccccc1)C(=O)N[C@@H](CC(C)C)C(=O)N[C@@H](CCC(N)=O)C(=O)N[C@@H](CCC(N)=O)C(=O)N[C@H](C(N)=O)[C@@H](C)O)C(C)C)[C@@H](C)O)C(C)C [FLRRIRVTPWVNPPFLQQT]
MIC [19]: ≥ 108 µM
MIC [20]: ≥ 54 µM

CC(C)C[C@H](NC(=O)[C@@H]1CCCN1C(=O)[C@H](CCCN=C(N)N)NC(=O)[C@H](CC(C)C)NC(=O)[C@H](CC(C)C)NC(=O)[C@@H]1CCCN1C(=O)[C@H](CCCN=C(N)N)NC(=O)[C@H](CC(C)C)NC(=O)[C@H](CC(C)C)NC(=O)[C@@H]1CCCN1C(=O)[C@H](CCCN=C(N)N)NC(=O)[C@H](CC(C)C)NC(=O)[C@H](CC(C)C)NC(=O)[C@@H]1CCCN1C(=O)[C@H](CCCN=C(N)N)NC(=O)[C@H](CC(C)C)NC(=O)[C@H](CC(C)C)NC(=O)[C@@H]1CCCN1C(=O)[C@H](CCCN=C(N)N)NC(=O)[C@H](CC(C)C)NC(=O)[C@H](CC(C)C)NC(=O)[C@@H]1CCCN1C(=O)[C@H](CCCN=C(N)N)NC(=O)[C@@H](N)CC(C)C)C(N)=O [LRPLLRPLLRPLLRPLLRPLLRPL]
MIC (Escherichia coli K88): 2 µM (≈ 5.79 µg/mL)
MIC [1]: 2 µM (≈ 5.79 µg/mL)
MIC [2]: 4 µM (≈ 11.6 µg/mL)
MIC (Escherichia coli UB1005): 2 µM (≈ 5.79 µg/mL)
MIC (Klebsiella pneumoniae): 8 µM (≈ 23.2 µg/mL)
MIC [3]: ≥ 32 µM
MIC (Escherichia coli): 2 µM (≈ 5.79 µg/mL)
MIC [4]: 4 µM (≈ 11.6 µg/mL)
MIC (Acinetobacter baumannii): 2 µM (≈ 5.79 µg/mL)
MIC [5]: 8 µM (≈ 23.2 µg/mL)
MIC [6]: 2 µM (≈ 5.79 µg/mL)
MIC [7]: 8 µM (≈ 23.2 µg/mL)
MIC [8]: 2 µM (≈ 5.79 µg/mL)
MIC (Pseudomonas aeruginosa): 32 µM (≈ 92.6 µg/mL)
MIC (Escherichia coli K99): 2 µM (≈ 5.79 µg/mL)

CC[C@H](C)[C@H](NC(=O)[C@H](CCCN=C(N)N)NC(=O)[C@H](CCCN=C(N)N)NC(=O)[C@H](Cc1c[nH]c2ccccc12)NC(=O)[C@@H](N)Cc1ccccc1)C(=O)N[C@@H](CCCN=C(N)N)C(=O)N[C@H](C(=O)N[C@H](C(=O)N1CCC[C@H]1C(=O)N[C@@H](Cc1c[nH]c2ccccc12)C(=O)N[C@H](C(=O)N[C@@H](CC(N)=O)C(=O)N1CCC[C@H]1C(=O)N1CCC[C@H]1C(=O)N[C@@H](Cc1ccccc1)C(=O)N[C@@H](CC(C)C)C(=O)N[C@@H](CCC(N)=O)C(=O)N[C@@H](CCC(N)=O)C(=O)N[C@H](C(N)=O)[C@@H](C)O)C(C)C)[C@@H](C)O)C(C)C [FWRRIRVTPWVNPPFLQQT]
MIC [19]: 26.2 µM (≈ 64 µg/mL)
MIC [21]: ≥ 105 µM
MIC [20]: 26.2 µM (≈ 64 µg/mL)

CC[C@H](C)[C@H](NC(=O)[C@H](CCCCN)NC(=O)[C@@H](NC(=O)[C@@H](NC(=O)[C@H](CC(N)=O)NC(=O)[C@H](Cc1ccc(O)cc1)NC(=O)[C@H](Cc1ccccc1)NC(=O)[C@@H](N)Cc1ccccc1)C(C)C)[C@@H](C)CC)C(=O)N[C@@H](Cc1ccc(O)cc1)C(=O)NCC(=O)N[C@@H](CC(N)=O)C(=O)N[C@@H](CCSC)C(=O)N[C@@H](C)C(=O)NCC(=O)N[C@@H](CCCN=C(N)N)C(=O)N[C@H](C(=O)N[C@@H](CO)C(=O)N[C@@H](CCCCN)C(N)=O)[C@@H](C)CC [FFYNVIKIYGNMAGRISK]
MIC [22]: ≥ 128 µM
MIC [23]: 16 µM (≈ 33.9 µg/mL)
MIC [24]: ≥ 64 µM
MIC [25]: ≥ 32 µM
MIC [26]: ≥ 128 µM
MIC (Ramulariopsis gossypii): ≥ 64 µM
MIC (Trichoderma asperellum): ≥ 256 µM
MIC [6]: 128 µM (≈ 271 µg/mL)
MIC (Fusarium solani): ≥ 128 µM
MIC [27]: 128 µM (≈ 271 µg/mL)
MIC [28]: ≥ 128 µM
MIC (Fusarium oxysporum): ≥ 128 µM

From DBAASP
